Experiment [1] concerns HRV16. The experiment in a line: HRV16 induced CPE in MRC5 cells. It is filed as cell-based, human rhinovirus. The conditions noted are these: for IC50: Human rhinovirus sp., HRV16, MRC5, read-out: HRV induced CPE in MRC5 Cells IC50; for HRV induced CPE in MRC5 Cells % Inhibition Observed: screened at concentrations up to 0.32 ng/mL. The method, then: The supernatants are aspirated, and then fresh media added followed by incubation for 4 days. Where appropriate, cells are pre-incubated with compound or DMSO for 2 hr, and the compounds and DMSO added again after washout of the virus.
Supernatants are aspirated and incubated with methylene blue solution (100 μL, 2% formaldehyde, 10% methanol and 0.175% Methylene Blue) for 2 hr at RT. […] The percentage inhibition for each well is calculated. The IC50 value is calculated from the concentration-response curve generated by the serial dilutions of the test compounds.

The target of experiment [2] is B-Raf (Homo sapiens (Human), UniProt P15056). The experiment in a line: Enzyme binding assay (Kinomescan) B-Raf. The conditions noted are these: read-out: % Inhibition for kinase binding at 500 nM B-Raf. The protocol:
(§1) These assays were conducted by DiscoverX (formerly Ambit; San Diego, Calif.). The percentage inhibition produced by incubation with a test compound is calculated relative to the non-inhibited control.

Experiment [3] has as its target p38 MAPKγ (Homo sapiens (Human), UniProt P53778). The experiment in a line: Enzyme binding assay (Kinomescan) p38 MAPKγ. The conditions noted are these: read-out: % Inhibition for kinase binding at 500 nM p38 MAPKγ. The protocol: as §1
For experiment [4], the target named is HCK (Homo sapiens (Human), UniProt P08631). The experiment in a line: Enzyme binding assay (Kinomescan) HCK. The conditions noted are these: read-out: % Inhibition for kinase binding at 500 nM HCK. The protocol:
(§2) The kinase enzyme binding activities of compounds disclosed herein were determined using a proprietary assay which measures active site-directed competition binding to an immobilized ligand (Fabian, M. A. et al., Nature Biotechnol., 2005, 23:329-336). These assays were conducted by DiscoverX (formerly Ambit; San Diego, Calif.). The percentage inhibition produced by incubation with a test compound is calculated relative to the non-inhibited control.

Experiment [5] deals with Syk (Homo sapiens (Human), UniProt P43405). The experiment in a line: Enzyme binding assay (Kinomescan) Syk. The conditions noted are these: read-out: % Inhibition for kinase binding at 500 nM Syk. The method, then: as §2
Experiment [6] addresses p38 MAPKα (Homo sapiens (Human), UniProt Q16539). The experiment in a line: Enzyme binding assay (Kinomescan) p38 MAPKα. The conditions noted are these: read-out: % Inhibition for kinase binding at 500 nM p38 MAPKα. The protocol:
as §2

Experiment [7] deals with cSrc (Homo sapiens (Human), UniProt P12931). The experiment in a line: Enzyme binding assay (Kinomescan) cSrc. The conditions noted are these: read-out: % Inhibition for kinase binding at 500 nM cSrc. The protocol: as §1
The target in experiment [8] is GSK3α (Homo sapiens (Human), UniProt P49840). The experiment in a line: Enzyme binding assay (Kinomescan) GSK3α. The conditions noted are these: read-out: % Inhibition for kinase binding at 500 nM GSK3α. The protocol: as §2
Sequence of GSK3α (P49840 whole entry): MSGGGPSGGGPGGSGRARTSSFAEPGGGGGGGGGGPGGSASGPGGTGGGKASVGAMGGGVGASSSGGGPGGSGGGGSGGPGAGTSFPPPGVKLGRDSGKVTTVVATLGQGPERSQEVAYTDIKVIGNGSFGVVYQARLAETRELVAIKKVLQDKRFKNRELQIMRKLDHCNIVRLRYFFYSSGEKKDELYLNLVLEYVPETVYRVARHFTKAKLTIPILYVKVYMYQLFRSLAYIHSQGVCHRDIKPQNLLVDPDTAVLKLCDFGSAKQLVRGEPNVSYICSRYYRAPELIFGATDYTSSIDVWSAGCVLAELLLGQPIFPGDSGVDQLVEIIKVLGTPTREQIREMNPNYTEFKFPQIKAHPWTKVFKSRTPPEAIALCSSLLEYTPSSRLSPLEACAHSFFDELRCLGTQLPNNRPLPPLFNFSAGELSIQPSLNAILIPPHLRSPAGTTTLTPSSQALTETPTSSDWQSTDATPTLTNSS

Sequence of p38 MAPKα (Q16539 whole entry): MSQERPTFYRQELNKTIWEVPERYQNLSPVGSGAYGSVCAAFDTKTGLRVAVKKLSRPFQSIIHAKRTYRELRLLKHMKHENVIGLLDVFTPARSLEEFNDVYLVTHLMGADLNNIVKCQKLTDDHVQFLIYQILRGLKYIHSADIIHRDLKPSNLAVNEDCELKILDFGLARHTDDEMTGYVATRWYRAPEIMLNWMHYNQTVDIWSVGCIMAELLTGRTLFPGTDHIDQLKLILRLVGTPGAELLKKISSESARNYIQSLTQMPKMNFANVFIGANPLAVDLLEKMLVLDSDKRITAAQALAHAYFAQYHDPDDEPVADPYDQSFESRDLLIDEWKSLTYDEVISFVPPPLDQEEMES
Sequence of p38 MAPKγ (P53778 whole entry): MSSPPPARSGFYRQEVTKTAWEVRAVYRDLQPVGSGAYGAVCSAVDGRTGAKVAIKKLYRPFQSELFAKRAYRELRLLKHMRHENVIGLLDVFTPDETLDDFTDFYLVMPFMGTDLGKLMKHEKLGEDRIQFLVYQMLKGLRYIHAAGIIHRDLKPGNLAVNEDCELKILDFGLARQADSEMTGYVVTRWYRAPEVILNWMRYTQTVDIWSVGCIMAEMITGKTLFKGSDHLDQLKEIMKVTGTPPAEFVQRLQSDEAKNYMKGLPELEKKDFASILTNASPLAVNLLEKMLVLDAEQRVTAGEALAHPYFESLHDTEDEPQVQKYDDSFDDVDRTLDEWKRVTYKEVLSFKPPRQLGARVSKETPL
Sequence of HCK (P08631 22-526): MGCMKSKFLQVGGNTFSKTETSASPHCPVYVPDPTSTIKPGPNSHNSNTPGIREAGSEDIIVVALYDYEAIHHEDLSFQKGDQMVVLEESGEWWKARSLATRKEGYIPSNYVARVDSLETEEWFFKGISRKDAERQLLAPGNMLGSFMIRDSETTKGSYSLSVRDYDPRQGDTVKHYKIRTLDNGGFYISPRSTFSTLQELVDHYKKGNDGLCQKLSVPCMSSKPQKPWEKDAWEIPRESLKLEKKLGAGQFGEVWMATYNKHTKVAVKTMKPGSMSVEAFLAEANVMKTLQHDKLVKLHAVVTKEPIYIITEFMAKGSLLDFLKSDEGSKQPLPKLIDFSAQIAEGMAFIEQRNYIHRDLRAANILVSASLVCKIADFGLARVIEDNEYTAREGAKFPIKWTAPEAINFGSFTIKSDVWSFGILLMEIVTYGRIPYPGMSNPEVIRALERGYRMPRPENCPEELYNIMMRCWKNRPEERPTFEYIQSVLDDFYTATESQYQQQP
Sequence of B-Raf (P15056 whole entry): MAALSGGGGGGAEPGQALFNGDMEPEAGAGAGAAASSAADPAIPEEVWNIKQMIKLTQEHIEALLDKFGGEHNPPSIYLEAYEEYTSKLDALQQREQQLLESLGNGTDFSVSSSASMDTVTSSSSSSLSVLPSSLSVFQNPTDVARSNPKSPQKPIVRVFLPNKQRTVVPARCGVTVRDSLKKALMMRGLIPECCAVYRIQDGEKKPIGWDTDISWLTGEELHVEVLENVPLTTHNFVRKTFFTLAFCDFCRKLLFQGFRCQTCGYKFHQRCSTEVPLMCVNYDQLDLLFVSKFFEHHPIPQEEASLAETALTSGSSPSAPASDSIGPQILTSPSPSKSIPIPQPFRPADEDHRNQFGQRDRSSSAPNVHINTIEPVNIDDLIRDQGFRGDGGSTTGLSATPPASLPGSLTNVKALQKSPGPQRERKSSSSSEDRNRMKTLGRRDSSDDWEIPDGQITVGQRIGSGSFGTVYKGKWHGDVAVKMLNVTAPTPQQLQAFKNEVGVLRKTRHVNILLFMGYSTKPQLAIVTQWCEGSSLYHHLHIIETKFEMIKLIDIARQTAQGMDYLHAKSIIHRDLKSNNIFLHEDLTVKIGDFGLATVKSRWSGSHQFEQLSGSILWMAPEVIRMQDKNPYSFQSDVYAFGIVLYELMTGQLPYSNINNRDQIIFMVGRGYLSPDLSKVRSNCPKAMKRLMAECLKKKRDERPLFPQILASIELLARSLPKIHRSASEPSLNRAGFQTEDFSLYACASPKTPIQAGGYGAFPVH
Sequence of cSrc (P12931 whole entry, looked up): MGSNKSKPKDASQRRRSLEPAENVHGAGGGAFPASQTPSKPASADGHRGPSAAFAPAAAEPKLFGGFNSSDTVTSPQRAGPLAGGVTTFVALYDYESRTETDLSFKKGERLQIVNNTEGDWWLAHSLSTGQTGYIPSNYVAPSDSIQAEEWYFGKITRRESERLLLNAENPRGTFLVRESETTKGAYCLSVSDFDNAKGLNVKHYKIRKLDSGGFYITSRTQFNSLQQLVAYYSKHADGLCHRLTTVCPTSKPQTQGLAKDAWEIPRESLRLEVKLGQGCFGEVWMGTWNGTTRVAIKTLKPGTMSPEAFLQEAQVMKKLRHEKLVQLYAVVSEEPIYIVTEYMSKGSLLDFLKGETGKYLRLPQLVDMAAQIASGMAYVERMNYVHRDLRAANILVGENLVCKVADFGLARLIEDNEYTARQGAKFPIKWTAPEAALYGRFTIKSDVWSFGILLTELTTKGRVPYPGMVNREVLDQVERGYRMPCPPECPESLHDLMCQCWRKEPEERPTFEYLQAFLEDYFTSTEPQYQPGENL

In the case of `Cc1cc(Nc2nccc(Oc3ccc(NC(=O)Nc4cc(C(C)(C)C)nn4-c4cccc(OCCN5CCOCC5)c4)c4ccccc34)n2)cc2cn[nH]c12` [Example 56, 1-(3-(tert-butyl)-1-(3-(2-morpholinoethoxy)phenyl)-1H-pyrazol-5-yl)-3-(4-((2-((7-methyl-1H-indazol-5-yl)amino)pyrimidin-4-yl)oxy)naphthalen-1-yl)urea], the IC50 in experiment [1] turned out to be 6.7 nM.

On to `CC(C)(C)c1cc(NC(=O)Nc2ccc(Oc3ccnc(Nc4ccc5[nH]ncc5c4)n3)c3ccccc23)n(-c2ccc(OCCN3CCOCC3)cc2)n1` [Example 12, 1-(4-((2-((1H-Indazol-5-yl)amino)pyrimidin-4-yl)oxy)naphthalen-1-yl)-3-(3-(tert-butyl)-1-(4-(2-morpholinoethoxy)phenyl)-1H-pyrazol-5-yl)urea], for which the inhibition at 0.5 µM was 0% in experiment [2]; 52% in experiment [3]; 100% in experiment [4]; 100% in experiment [5]; 66% in experiment [6]; 100% in experiment [7]. Besides, the inhibition at 0.5 µM in experiment [8] was found to be 31%. Besides, the “HRV induced CPE in MRC5 Cells % Inhibition Observed” value in experiment [1] came out at 92%.

For `Cc1ccc(-n2nc(C(C)(C)C)cc2NC(=O)Nc2ccc(Oc3ccnc(Nc4ccc5ncsc5c4)n3)c3ccccc23)cc1` [Example 35, 1-(4-((2-(benzo[d]thiazol-6-ylamino)pyrimidin-4-yl)oxy)naphthalen-1-yl)-3-(3-(tert-butyl)-1-(p-tolyl)-1H-pyrazol-5-yl)urea], the “HRV induced CPE in MRC5 Cells % Inhibition Observed” value in experiment [1] is listed as 100%.

Regarding `Cc1ccc(-n2nc(C(C)(C)C)cc2NC(=O)Nc2ccc(Oc3cc(Nc4ccc5[nH]ncc5c4)ncn3)c3ccccc23)cc1` [Example 23, 1-(4-((6-((1H-indazol-5-yl)amino)pyrimidin-4-yl)oxy)naphthalen-1-yl)-3-(3-(tert-butyl)-1-(p-tolyl)-1H-pyrazol-5-yl)urea], the IC50 in experiment [1] amounted to 3 nM.

Consider `Cc1cc(Nc2nccc(Oc3ccc(NC(=O)Nc4cc(C(C)(C)C)nn4-c4ccc(=O)n(CCN5CCOCC5)c4)c4ccccc34)n2)cc2cn[nH]c12` [Example 89, 1-(3-(tert-butyl)-1-(1-(2-morpholinoethyl)-6-oxo-1,6-dihydropyridin-3-yl)-1H-pyrazol-5-yl)-3-(4-((2-((7-methyl-1H-indazol-5-yl)amino)pyrimidin-4-yl)oxy)naphthalen-1-yl)urea], for which the IC50 in experiment [1] came out at 9.6 nM.

What is called IC50 is the point on the concentration scale where inhibition reaches its midpoint. As a reminder, the inhibition is the change of the read-out against control, counted positive when it falls.

The record behind these values is patent US9249125B2, “Pyrazole derivatives as p38 MAP inhibitors” (RESPIVERT LIMITED, priority 2012, dated 2016).
